Measurements reported in ChEMBL document CHEMBL5291721, “A preclinical secondary pharmacology resource illuminates target-adverse drug reaction associations of marketed drugs” (Nat Commun, 2023).

Key:
Adenosine receptor A3 = target: T1, Adenosine receptor A3 (Homo sapiens, UniProt P0DMS8)
T1 sequence (P0DMS8 whole entry): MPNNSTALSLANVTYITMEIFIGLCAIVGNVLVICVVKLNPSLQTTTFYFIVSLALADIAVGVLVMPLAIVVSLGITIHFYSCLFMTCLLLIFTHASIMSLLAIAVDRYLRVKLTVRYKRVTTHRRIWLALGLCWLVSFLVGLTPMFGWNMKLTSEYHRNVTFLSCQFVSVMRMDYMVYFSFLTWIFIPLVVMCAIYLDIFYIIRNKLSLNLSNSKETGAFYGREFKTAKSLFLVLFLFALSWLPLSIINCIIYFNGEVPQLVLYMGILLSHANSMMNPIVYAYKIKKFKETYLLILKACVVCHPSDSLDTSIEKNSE

[1] = target: T2, Alpha-2A adrenergic receptor (Homo sapiens, UniProt P08913); assay type: functional, cell-based
T2 sequence (P08913 whole entry): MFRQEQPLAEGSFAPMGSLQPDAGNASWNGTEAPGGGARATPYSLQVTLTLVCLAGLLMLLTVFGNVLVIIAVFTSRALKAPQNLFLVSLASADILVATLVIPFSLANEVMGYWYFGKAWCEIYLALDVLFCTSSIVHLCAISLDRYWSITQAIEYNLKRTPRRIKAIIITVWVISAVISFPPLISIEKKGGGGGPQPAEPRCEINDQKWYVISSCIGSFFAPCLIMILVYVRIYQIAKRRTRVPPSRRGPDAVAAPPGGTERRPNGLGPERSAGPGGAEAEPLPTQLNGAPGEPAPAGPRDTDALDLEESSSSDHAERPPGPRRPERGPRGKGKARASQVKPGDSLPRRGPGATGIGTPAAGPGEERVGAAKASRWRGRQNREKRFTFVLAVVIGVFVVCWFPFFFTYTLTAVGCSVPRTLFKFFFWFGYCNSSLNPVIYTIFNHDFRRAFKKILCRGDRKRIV

[2] = target: T3, Type-1 angiotensin II receptor (Homo sapiens, UniProt P30556)
T3 sequence (P30556 whole entry): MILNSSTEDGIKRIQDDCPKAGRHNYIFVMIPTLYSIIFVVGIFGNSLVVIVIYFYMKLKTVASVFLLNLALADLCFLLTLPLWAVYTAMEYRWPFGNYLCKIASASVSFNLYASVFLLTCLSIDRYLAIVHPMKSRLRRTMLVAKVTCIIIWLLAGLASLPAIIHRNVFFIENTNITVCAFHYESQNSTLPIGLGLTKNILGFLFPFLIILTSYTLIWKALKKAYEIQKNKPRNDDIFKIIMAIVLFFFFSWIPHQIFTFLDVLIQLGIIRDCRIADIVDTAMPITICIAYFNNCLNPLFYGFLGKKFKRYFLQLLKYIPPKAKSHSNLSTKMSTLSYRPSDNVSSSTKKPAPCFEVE

Vasopressin V1a receptor = Vasopressin V1a receptor (Homo sapiens, UniProt P37288)
Chain of Vasopressin V1a receptor (P37288 whole entry): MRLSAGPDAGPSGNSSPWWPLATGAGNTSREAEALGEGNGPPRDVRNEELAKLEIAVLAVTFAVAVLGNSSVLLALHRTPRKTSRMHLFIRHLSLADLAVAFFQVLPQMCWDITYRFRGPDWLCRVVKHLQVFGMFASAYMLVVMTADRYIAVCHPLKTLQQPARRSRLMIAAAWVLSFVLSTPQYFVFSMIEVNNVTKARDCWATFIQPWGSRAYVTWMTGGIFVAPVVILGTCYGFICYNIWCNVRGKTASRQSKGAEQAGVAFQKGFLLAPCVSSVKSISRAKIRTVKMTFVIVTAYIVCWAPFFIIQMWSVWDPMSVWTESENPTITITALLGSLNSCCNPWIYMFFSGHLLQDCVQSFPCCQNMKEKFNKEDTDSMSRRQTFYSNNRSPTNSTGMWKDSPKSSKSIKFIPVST

B2 bradykinin receptor = target: T4, B2 bradykinin receptor (Homo sapiens, UniProt P30411)
T4 sequence (P30411 whole entry): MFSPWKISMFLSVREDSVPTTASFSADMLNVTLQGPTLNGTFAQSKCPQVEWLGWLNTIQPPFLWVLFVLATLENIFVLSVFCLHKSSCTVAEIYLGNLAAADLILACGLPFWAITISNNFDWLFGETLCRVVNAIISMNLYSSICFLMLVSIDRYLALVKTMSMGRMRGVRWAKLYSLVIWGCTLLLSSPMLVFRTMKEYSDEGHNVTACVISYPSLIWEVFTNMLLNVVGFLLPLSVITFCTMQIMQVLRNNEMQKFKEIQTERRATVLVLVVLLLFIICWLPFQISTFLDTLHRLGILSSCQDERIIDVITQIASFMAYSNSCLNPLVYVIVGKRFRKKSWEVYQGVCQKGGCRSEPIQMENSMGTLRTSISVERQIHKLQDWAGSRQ

[3] = target: Neuronal acetylcholine receptor subunit alpha-4 (Homo sapiens, UniProt P43681)
Chain of Neuronal acetylcholine receptor subunit alpha-4 (P43681 whole entry): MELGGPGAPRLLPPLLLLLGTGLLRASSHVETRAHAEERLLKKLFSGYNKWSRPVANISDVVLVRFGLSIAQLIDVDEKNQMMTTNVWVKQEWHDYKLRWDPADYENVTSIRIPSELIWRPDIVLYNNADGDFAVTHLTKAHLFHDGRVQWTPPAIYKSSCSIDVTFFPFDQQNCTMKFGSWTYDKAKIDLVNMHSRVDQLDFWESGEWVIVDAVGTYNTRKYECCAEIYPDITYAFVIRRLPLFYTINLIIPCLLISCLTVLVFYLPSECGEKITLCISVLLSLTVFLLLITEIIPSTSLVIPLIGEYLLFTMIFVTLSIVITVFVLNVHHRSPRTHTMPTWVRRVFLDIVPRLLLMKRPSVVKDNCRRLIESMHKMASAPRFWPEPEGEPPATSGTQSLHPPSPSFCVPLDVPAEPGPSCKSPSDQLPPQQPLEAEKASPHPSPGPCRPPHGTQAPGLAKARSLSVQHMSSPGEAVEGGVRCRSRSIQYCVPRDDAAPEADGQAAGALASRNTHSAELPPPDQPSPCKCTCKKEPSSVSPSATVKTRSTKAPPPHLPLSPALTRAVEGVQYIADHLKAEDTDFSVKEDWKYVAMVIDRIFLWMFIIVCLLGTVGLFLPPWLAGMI

D(1A) dopamine receptor = D(1A) dopamine receptor (Homo sapiens, UniProt P21728); assay type: functional, cell-based
Chain of D(1A) dopamine receptor (P21728 whole entry): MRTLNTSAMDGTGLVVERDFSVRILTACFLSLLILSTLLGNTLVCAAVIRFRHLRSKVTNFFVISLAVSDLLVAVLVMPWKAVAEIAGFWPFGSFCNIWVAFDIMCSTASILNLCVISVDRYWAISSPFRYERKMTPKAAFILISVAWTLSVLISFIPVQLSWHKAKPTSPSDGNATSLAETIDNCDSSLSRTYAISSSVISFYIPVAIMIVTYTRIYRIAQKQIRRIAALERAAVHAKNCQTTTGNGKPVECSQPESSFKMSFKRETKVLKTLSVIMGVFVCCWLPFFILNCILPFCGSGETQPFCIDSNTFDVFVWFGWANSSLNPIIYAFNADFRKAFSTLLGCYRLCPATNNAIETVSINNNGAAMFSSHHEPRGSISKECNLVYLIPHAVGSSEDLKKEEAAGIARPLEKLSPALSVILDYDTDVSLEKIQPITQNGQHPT

[4] = target: 5-hydroxytryptamine receptor 2A (Homo sapiens, UniProt P28223); assay type: functional, cell-based
Chain of 5-hydroxytryptamine receptor 2A (P28223 whole entry): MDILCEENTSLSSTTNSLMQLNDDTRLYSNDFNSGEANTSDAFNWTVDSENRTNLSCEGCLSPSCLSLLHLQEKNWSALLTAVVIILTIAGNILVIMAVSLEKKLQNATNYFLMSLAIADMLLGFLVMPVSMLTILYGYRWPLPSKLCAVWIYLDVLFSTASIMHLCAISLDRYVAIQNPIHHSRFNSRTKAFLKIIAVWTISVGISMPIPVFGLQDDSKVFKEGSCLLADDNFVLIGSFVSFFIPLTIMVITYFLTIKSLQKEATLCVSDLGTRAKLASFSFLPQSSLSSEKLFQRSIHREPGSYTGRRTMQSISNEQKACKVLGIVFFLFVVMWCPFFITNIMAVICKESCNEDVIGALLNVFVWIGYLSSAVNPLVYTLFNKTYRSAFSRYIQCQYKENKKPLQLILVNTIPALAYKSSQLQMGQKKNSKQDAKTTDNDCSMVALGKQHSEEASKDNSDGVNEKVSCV

[5] = target: 3',5'-cyclic-AMP phosphodiesterase 4D (Homo sapiens, UniProt Q08499); assay type: functional
Chain of 3',5'-cyclic-AMP phosphodiesterase 4D (Q08499 whole entry): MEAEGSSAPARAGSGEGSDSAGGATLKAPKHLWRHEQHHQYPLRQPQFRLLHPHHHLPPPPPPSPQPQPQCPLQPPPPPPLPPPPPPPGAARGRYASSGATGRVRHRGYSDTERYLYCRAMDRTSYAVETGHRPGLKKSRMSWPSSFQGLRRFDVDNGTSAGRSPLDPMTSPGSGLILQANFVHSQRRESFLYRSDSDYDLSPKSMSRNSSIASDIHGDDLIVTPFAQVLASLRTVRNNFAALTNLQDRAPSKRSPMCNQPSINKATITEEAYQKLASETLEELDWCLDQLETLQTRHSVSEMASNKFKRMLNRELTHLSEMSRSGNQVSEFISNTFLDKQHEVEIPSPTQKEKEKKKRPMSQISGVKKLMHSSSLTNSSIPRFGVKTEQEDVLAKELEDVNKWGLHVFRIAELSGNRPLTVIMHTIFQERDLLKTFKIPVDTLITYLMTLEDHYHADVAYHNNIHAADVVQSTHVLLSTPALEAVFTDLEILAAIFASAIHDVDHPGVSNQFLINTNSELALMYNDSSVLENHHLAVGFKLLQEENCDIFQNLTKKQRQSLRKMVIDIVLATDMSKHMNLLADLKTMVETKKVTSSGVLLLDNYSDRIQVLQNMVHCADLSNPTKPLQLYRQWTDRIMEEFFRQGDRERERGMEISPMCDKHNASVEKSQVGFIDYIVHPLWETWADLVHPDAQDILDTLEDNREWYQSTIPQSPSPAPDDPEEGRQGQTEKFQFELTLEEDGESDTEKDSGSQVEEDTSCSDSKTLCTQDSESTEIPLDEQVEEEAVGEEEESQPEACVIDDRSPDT

Progesterone receptor = target: T5, Progesterone receptor (Homo sapiens, UniProt P06401); assay type: functional
T5 sequence (P06401 whole entry): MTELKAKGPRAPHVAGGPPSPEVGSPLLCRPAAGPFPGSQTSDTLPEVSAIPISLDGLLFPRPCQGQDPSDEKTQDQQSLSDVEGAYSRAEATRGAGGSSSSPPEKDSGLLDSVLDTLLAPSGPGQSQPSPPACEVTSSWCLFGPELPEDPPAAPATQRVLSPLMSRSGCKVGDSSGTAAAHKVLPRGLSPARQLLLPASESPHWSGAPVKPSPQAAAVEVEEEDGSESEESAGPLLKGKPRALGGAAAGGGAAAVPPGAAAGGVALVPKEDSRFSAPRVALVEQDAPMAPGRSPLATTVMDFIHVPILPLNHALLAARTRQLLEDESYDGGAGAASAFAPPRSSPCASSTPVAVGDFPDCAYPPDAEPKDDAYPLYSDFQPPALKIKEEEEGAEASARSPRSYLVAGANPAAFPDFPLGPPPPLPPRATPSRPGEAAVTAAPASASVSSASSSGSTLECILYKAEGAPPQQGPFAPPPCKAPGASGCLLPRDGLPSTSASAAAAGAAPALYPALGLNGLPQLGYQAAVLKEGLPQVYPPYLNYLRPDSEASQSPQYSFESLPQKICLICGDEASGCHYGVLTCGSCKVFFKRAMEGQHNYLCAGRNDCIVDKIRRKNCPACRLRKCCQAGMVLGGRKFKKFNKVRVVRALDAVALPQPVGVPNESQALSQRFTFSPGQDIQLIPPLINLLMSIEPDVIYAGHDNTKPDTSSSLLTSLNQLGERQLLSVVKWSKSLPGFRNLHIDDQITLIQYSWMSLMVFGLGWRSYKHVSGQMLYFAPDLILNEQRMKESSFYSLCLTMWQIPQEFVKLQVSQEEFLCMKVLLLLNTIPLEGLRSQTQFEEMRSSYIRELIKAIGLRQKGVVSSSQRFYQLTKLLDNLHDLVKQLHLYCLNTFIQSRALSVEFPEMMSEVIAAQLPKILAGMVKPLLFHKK

[6] = target: cGMP-inhibited 3',5'-cyclic phosphodiesterase 3A (Homo sapiens, UniProt Q14432); assay type: functional
Chain of cGMP-inhibited 3',5'-cyclic phosphodiesterase 3A (Q14432 whole entry): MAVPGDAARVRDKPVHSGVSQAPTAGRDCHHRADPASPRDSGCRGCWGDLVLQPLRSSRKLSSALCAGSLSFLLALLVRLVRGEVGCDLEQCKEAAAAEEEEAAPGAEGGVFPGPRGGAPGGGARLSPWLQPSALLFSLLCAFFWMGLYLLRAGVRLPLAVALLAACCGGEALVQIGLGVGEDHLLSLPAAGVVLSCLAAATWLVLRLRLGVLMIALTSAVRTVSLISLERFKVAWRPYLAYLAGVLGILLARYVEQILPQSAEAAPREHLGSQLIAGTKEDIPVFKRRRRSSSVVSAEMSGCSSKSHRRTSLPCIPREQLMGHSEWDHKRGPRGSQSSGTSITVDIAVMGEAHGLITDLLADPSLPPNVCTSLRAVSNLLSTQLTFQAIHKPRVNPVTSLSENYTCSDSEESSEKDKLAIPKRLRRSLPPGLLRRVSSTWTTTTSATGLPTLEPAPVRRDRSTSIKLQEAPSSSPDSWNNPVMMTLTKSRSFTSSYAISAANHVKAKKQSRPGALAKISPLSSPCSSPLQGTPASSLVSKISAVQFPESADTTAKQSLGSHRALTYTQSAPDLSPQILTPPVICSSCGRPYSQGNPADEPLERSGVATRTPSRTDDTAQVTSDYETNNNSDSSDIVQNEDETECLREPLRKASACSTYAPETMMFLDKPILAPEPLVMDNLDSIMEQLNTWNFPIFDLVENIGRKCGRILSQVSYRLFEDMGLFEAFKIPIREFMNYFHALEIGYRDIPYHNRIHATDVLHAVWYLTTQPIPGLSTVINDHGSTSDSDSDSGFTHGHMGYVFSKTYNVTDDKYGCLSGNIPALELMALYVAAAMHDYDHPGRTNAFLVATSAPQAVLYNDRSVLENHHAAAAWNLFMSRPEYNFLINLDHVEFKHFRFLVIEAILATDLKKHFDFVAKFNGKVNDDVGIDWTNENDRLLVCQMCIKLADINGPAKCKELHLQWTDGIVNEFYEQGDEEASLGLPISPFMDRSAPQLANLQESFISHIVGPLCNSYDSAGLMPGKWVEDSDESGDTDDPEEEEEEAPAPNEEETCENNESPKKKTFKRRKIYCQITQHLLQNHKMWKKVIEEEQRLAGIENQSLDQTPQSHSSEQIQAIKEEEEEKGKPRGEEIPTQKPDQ
Further: assay procedure not described here.

Structure (SMILES)	AC50 (Adenosine receptor A3)	AC50 [1]	AC50 [2]	AC50 (Vasopressin V1a receptor)	AC50 (B2 bradykinin receptor)	AC50 [3]	AC50 (D(1A) dopamine receptor)	AC50 [4]	AC50 [5]	AC50 (Progesterone receptor)	AC50 [6]
Cc1cn(-c2cc(NC(=O)c3ccc(C)c(Nc4nccc(-c5cnccn5)n4)c3)cc(C(F)(F)F)c2)cn1 [RADOTINIB]	3.3 µM	–	–	–	–	27 µM	–	> 30 µM	> 30 µM	> 30 µM	30 µM
N=C(N)NC(=O)c1nc(Cl)c(N)nc1N [AMILORIDE]	> 30 µM	> 30 µM	> 30 µM	> 30 µM	> 30 µM	> 30 µM	> 30 µM	–	> 30 µM	> 30 µM	> 30 µM
Cc1ccc(O)c([C@H](CCN(C(C)C)C(C)C)c2ccccc2)c1 [TOLTERODINE]	–	> 10 µM	–	–	–	> 10 µM	> 10 µM	–	–	–	–
COc1cccc2c1C(=O)c1c(O)c3c(c(O)c1C2=O)C[C@@](O)(C(=O)CO)C[C@@H]3O[C@H]1C[C@H](N)[C@H](O)[C@H](C)O1 [DOXORUBICIN]	> 30 µM	12 µM	> 30 µM	> 30 µM	> 30 µM	> 30 µM	> 30 µM	–	> 30 µM	> 30 µM	> 30 µM
CC(C)(C)NCC(O)COc1ccccc1C#N (stereo unspecified) [BUNITROLOL]	–	> 30 µM	–	–	–	–	> 30 µM	> 30 µM	> 30 µM	–	> 30 µM
CNC(=O)c1cnn(-c2nc(N)c3ncn([C@@H]4O[C@H](CO)[C@@H](O)[C@H]4O)c3n2)c1 [REGADENOSON ANHYDROUS]	3.7 µM	–	–	–	–	–	–	–	–	–	–
COc1ccc(C(=O)c2ccccc2)c(O)c1 [OXYBENZONE]	–	> 30 µM	–	–	–	–	> 30 µM	> 30 µM	26 µM	–	> 30 µM
Oc1cc(Cl)ccc1Oc1ccc(Cl)cc1Cl [TRICLOSAN]	8.9 µM	> 30 µM	24 µM	> 30 µM	> 30 µM	> 30 µM	> 30 µM	> 30 µM	> 30 µM	> 30 µM	> 30 µM
CCn1c(=O)c2c(nc(/C=C/c3ccc(OC)c(OC)c3)n2C)n(CC)c1=O [ISTRADEFYLLINE]	24 µM	–	–	–	–	> 30 µM	–	> 30 µM	1.8 µM	> 30 µM	> 30 µM

Continued, values first:

AC50 (Adenosine receptor A3)	AC50 [1]	AC50 [2]	AC50 (Vasopressin V1a receptor)	AC50 (B2 bradykinin receptor)	AC50 [3]	AC50 (D(1A) dopamine receptor)	AC50 [4]	AC50 [5]	AC50 (Progesterone receptor)	AC50 [6]	Structure (SMILES)
> 30 µM	> 30 µM	> 30 µM	> 30 µM	> 30 µM	> 30 µM	> 30 µM	> 30 µM	> 30 µM	> 30 µM	> 30 µM	CC(C)(Oc1ccc(Cl)cc1)C(=O)OCCOC(=O)c1cccnc1 [ETOFIBRATE]
7.7 µM	> 30 µM	9.3 µM	8.7 µM	> 30 µM	9.2 µM	> 30 µM	> 30 µM	> 10 µM	15 µM	> 30 µM	COc1ccc(-c2cc(=S)ss2)cc1 [ANETHOLTRITHION]
> 30 µM	> 30 µM	> 30 µM	> 30 µM	> 30 µM	> 30 µM	> 30 µM	24 µM	> 30 µM	–	> 30 µM	C[C@]12CCC(=O)C=C1[C@@H]1C[C@@H]1[C@H]1[C@@H]3[C@@H]4C[C@@H]4[C@@]4(CCC(=O)O4)[C@@]3(C)CC[C@@H]12 [DROSPIRENONE]
> 30 µM	> 10 µM	> 30 µM	> 30 µM	> 30 µM	> 10 µM	> 10 µM	–	> 30 µM	–	> 30 µM	C[C@]12C=CC(=O)C=C1CC[C@@H]1[C@@H]2[C@@H](O)C[C@@]2(C)[C@H]1CC[C@]2(O)C(=O)CO [PREDNISOLONE]
> 10 µM	> 10 µM	> 10 µM	> 10 µM	> 10 µM	> 10 µM	> 10 µM	4.4 µM	> 30 µM	> 10 µM	> 30 µM	CN(C)CCC(O)(c1ccccc1)c1ccccc1Cl (stereo unspecified) [CHLOPHEDIANOL]
> 30 µM	> 30 µM	> 30 µM	–	> 30 µM	> 30 µM	> 30 µM	–	> 30 µM	0.02 µM	> 30 µM	CC1(C)O[C@@H]2C[C@H]3[C@@H]4CCC5=CC(=O)C=C[C@]5(C)[C@@]4(F)[C@@H](O)C[C@]3(C)[C@]2(C(=O)CO)O1 [TRIAMCINOLONE ACETONIDE]
13 µM	> 30 µM	> 30 µM	> 30 µM	> 3 µM	> 30 µM	> 30 µM	> 30 µM	> 30 µM	2.1 µM	> 30 µM	C[C@]12C=CC(=O)C=C1C(Cl)=C[C@@H]1[C@@H]2[C@@H](O)C[C@@]2(C)[C@H]1CC[C@]2(O)C(=O)CO [CLOPREDNOL]
> 10 µM	> 10 µM	> 10 µM	> 10 µM	> 10 µM	> 10 µM	> 10 µM	1 µM	> 10 µM	> 30 µM	> 30 µM	CCC(=O)c1ccc2c(c1)N(CC(C)N(C)C)c1ccccc1S2 (stereo unspecified) [PROPIOMAZINE]
> 10 µM	> 10 µM	> 10 µM	> 10 µM	> 10 µM	> 10 µM	> 10 µM	> 30 µM	> 30 µM	> 30 µM	> 30 µM	CN(C)[C@@H]1C(O)=C(C(=O)NCN2CCCC2)C(=O)[C@@]2(O)C(O)=C3C(=O)c4c(O)cccc4[C@@](C)(O)[C@H]3C[C@@H]12 [ROLITETRACYCLINE]
